Key:
S. aureus Newman [1] = experiment: fitness (endpoint OD595 vs no drug) (fraction); higher = more growth
Outline: (§1)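 Fitness was defined as the optical density at the transition into stationary phase relative to the robust mean of no-drug control wells. Values were capped at 1. Cultures were started at OD595 0.01 in 384-well plates (30 µl, or 55 µl for S. pneumoniae) in TSB, LB Lennox or CY at 37 °C. OD595 was recorded every 30 min over 14 h, with the first reading subtracted as background.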

S. pneumoniae D39V [2] = experiment: as above
Outline: as §1

S. aureus DSM 20231 [3] = experiment: as above
Outline: as §1

B. subtilis 168 [4] = experiment: as above
Outline: as §1

S. aureus Newman [5] = experiment: Bliss interaction score (quartile over a dose matrix) (fitness difference); higher = more antagonism (negative = synergy)
Outline: (§2)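 Combination data were used to infer fitness under each single drug. Fitness is the OD595 at entry into stationary phase divided by the robust mean of the plate's no-drug wells, with a cap of 1. The Bliss score is the observed minus the expected product fitness, summarised by quartiles over technical, biological and donor/recipient replicates.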

S. pneumoniae D39V [6] = experiment: as above
Outline: as §2

S. aureus DSM 20231 [7] = experiment: as above
Outline: as §2

B. subtilis 168 [8] = experiment: as above
Outline: as §2
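Throughout, for Bliss interaction score (quartile over a dose matrix): first quartile when negative (synergy) and third quartile when positive (antagonism).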

CO/N=C(\C(=O)N[C@@H]1C(=O)N2C(C(=O)O)=C(COC(C)=O)CS[C@H]12)c1csc(N)n1 [Cefotaxime] + CC1=C\[C@@H](O)CC(=O)Cc2nc(co2)C(=O)N2CCC=C2C(=O)O[C@H](C(C)C)[C@H](C)/C=C/C(=O)NC\C=C\1 [Virginiamycin M1]
one replicate
Settings	fitness
B. subtilis 168 [4], first compound 0.00775 µg/mL, partner 0.0625 µg/mL	0.854
B. subtilis 168 [4], first compound 0.00775 µg/mL, partner 0.125 µg/mL	0.833
B. subtilis 168 [4], first compound 0.00775 µg/mL, partner 0.25 µg/mL	0.833
B. subtilis 168 [4], first compound 0.0155 µg/mL, partner 0.0625 µg/mL	0.695
B. subtilis 168 [4], first compound 0.0155 µg/mL, partner 0.125 µg/mL	0.683
B. subtilis 168 [4], first compound 0.0155 µg/mL, partner 0.25 µg/mL	0.673
B. subtilis 168 [4], first compound 0.031 µg/mL, partner 0.0625 µg/mL	0.554
B. subtilis 168 [4], first compound 0.031 µg/mL, partner 0.125 µg/mL	0.557
B. subtilis 168 [4], first compound 0.031 µg/mL, partner 0.25 µg/mL	0.583
S. aureus DSM 20231 [3], first compound 0.039 µg/mL, partner 0.0625 µg/mL	0.775
S. aureus DSM 20231 [3], first compound 0.039 µg/mL, partner 0.125 µg/mL	0.779
S. aureus DSM 20231 [3], first compound 0.039 µg/mL, partner 0.25 µg/mL	0.762
S. aureus DSM 20231 [3], first compound 0.078 µg/mL, partner 0.5 µg/mL	0.778
S. aureus DSM 20231 [3], first compound 0.078 µg/mL, partner 1 µg/mL	0.799
S. aureus DSM 20231 [3], first compound 0.156 µg/mL, partner 0.5 µg/mL	0.742
S. aureus DSM 20231 [3], first compound 0.156 µg/mL, partner 1 µg/mL	0.699
S. aureus DSM 20231 [3], first compound 0.312 µg/mL, partner 0.5 µg/mL	0.61
S. aureus DSM 20231 [3], first compound 0.312 µg/mL, partner 1 µg/mL	0.706
S. aureus Newman [1], first compound 0.039 µg/mL, partner 0.5 µg/mL	0.71
S. aureus Newman [1], first compound 0.039 µg/mL, partner 1 µg/mL	0.72
S. aureus Newman [1], first compound 0.039 µg/mL, partner 2 µg/mL	0.732
S. aureus Newman [1], first compound 0.078 µg/mL, partner 0.0625 µg/mL	0.699
S. aureus Newman [1], first compound 0.078 µg/mL, partner 0.125 µg/mL	0.716
S. aureus Newman [1], first compound 0.078 µg/mL, partner 0.25 µg/mL	0.734
S. aureus Newman [1], first compound 0.078 µg/mL, partner 0.5 µg/mL	0.672
S. aureus Newman [1], first compound 0.078 µg/mL, partner 1 µg/mL	0.687
S. aureus Newman [1], first compound 0.078 µg/mL, partner 2 µg/mL	0.57
S. aureus Newman [1], first compound 0.156 µg/mL, partner 0.0625 µg/mL	0.494
S. aureus Newman [1], first compound 0.156 µg/mL, partner 0.125 µg/mL	0.468
S. aureus Newman [1], first compound 0.156 µg/mL, partner 0.25 µg/mL	0.509
S. aureus Newman [1], first compound 0.156 µg/mL, partner 0.5 µg/mL	0.648
S. aureus Newman [1], first compound 0.156 µg/mL, partner 1 µg/mL	0.613
S. aureus Newman [1], first compound 0.156 µg/mL, partner 2 µg/mL	0.444
S. aureus Newman [1], first compound 0.312 µg/mL, partner 0.0625 µg/mL	0.305
S. aureus Newman [1], first compound 0.312 µg/mL, partner 0.125 µg/mL	0.326
S. aureus Newman [1], first compound 0.312 µg/mL, partner 0.25 µg/mL	0.307
S. aureus Newman [1], first compound 0.312 µg/mL, partner 0.5 µg/mL	0.57
S. aureus Newman [1], first compound 0.312 µg/mL, partner 1 µg/mL	0.54
S. aureus Newman [1], first compound 0.312 µg/mL, partner 2 µg/mL	0.344
S. aureus Newman [1], first compound 0.625 µg/mL, partner 0.0625 µg/mL	0.0023
S. aureus Newman [1], first compound 0.625 µg/mL, partner 0.125 µg/mL	0.0438
S. aureus Newman [1], first compound 0.625 µg/mL, partner 0.25 µg/mL	0.039
S. aureus Newman [1], first compound 1.25 µg/mL, partner 0.0625 µg/mL	0.0272
S. aureus Newman [1], first compound 1.25 µg/mL, partner 0.125 µg/mL	0.0702
S. aureus Newman [1], first compound 1.25 µg/mL, partner 0.25 µg/mL	0.0726
S. aureus Newman [1], first compound 2.5 µg/mL, partner 0.0625 µg/mL	0.0428
S. aureus Newman [1], first compound 2.5 µg/mL, partner 0.125 µg/mL	0.0329
S. aureus Newman [1], first compound 2.5 µg/mL, partner 0.25 µg/mL	0.0641
S. pneumoniae D39V [2], first compound 0.0018 µg/mL, partner 0.15 µg/mL	≥ 1
S. pneumoniae D39V [2], first compound 0.0018 µg/mL, partner 0.3 µg/mL	0.976
S. pneumoniae D39V [2], first compound 0.0035 µg/mL, partner 0.15 µg/mL	≥ 1
S. pneumoniae D39V [2], first compound 0.0035 µg/mL, partner 0.3 µg/mL	≥ 1
S. pneumoniae D39V [2], first compound 0.007 µg/mL, partner 0.15 µg/mL	≥ 1
S. pneumoniae D39V [2], first compound 0.007 µg/mL, partner 0.3 µg/mL	0.952

fitness
Settings	partner 0.0625 µg/mL	partner 0.125 µg/mL	partner 0.25 µg/mL	partner 0.5 µg/mL	partner 1 µg/mL	partner 2 µg/mL
B. subtilis 168 [4], first compound 0.5 µg/mL	0.23	0.246	0.239	–	–	–
B. subtilis 168 [4], first compound 1 µg/mL	0.085	0.0947	0.119	–	–	–
B. subtilis 168 [4], first compound 2 µg/mL	0.0507	0.082	0.0814	–	–	–
S. aureus DSM 20231 [3], first compound 0.078 µg/mL	0.678	0.784	0.776	–	–	–
S. aureus DSM 20231 [3], first compound 0.156 µg/mL	0.711	0.83	0.741	–	–	–
S. aureus DSM 20231 [3], first compound 0.312 µg/mL	0.683	0.694	0.676	–	–	–
S. pneumoniae D39V [2], first compound 0.0018 µg/mL	–	–	–	0.991	1	0.947
S. pneumoniae D39V [2], first compound 0.0035 µg/mL	–	–	–	0.975	0.95	0.966
S. pneumoniae D39V [2], first compound 0.007 µg/mL	–	–	–	0.916	0.957	0.917

Settings	Bliss interaction score
B. subtilis 168 [8]	0.0729
S. aureus DSM 20231 [7]	0.0452
S. aureus Newman [5]	-0.0479
S. pneumoniae D39V [6]	-0.0315

CO/N=C(\C(=O)N[C@@H]1C(=O)N2C(C(=O)O)=C(COC(C)=O)CS[C@H]12)c1csc(N)n1 [Cefotaxime] + Cc1ncc([N+](=O)[O-])n1CCO [Metronidazole]
fitness, one replicate
Settings	partner 0.625 µg/mL	partner 0.781 µg/mL	partner 1.25 µg/mL	partner 1.562 µg/mL	partner 2.5 µg/mL	partner 3.124 µg/mL
B. subtilis 168 [4], first compound 0.00775 µg/mL	0.871	–	0.887	–	0.851	–
B. subtilis 168 [4], first compound 0.0155 µg/mL	0.728	–	0.672	–	0.707	–
B. subtilis 168 [4], first compound 0.031 µg/mL	0.553	–	0.576	–	0.594	–
S. aureus Newman [1], first compound 0.039 µg/mL	0.888	–	0.794	–	0.817	–
S. aureus Newman [1], first compound 0.078 µg/mL	–	0.714	–	0.756	–	0.788
S. aureus Newman [1], first compound 0.156 µg/mL	–	0.492	–	0.486	–	0.529
S. aureus Newman [1], first compound 0.312 µg/mL	0.248	0.305	0.311	0.397	0.329	0.361
S. aureus Newman [1], first compound 0.625 µg/mL	–	0.0599	–	0.0931	–	0.0887
S. aureus Newman [1], first compound 1.25 µg/mL	–	0.0419	–	0.0637	–	0.07
S. aureus Newman [1], first compound 2.5 µg/mL	–	0.0362	–	0.0976	–	0.0571

fitness
Settings	partner 0.625 µg/mL	partner 1.073 µg/mL	partner 1.25 µg/mL	partner 2.145 µg/mL	partner 2.5 µg/mL	partner 4.29 µg/mL	partner 5 µg/mL
B. subtilis 168 [4], first compound 0.5 µg/mL	0.299	–	0.289	–	0.278	–	–
B. subtilis 168 [4], first compound 1 µg/mL	0.152	–	0.135	–	0.146	–	–
B. subtilis 168 [4], first compound 2 µg/mL	0.0908	–	0.109	–	0.108	–	–
S. aureus DSM 20231 [3], first compound 0.039 µg/mL	0.825	–	0.888	–	0.963	–	–
S. aureus DSM 20231 [3], first compound 0.078 µg/mL	0.829	–	0.828	–	0.913	–	–
S. aureus DSM 20231 [3], first compound 0.156 µg/mL	0.689	–	0.745	–	0.813	–	–
S. aureus DSM 20231 [3], first compound 0.312 µg/mL	0.621	–	0.649	–	0.674	–	–
S. aureus Newman [1], first compound 0.078 µg/mL	0.767	–	0.779	–	0.792	–	–
S. aureus Newman [1], first compound 0.156 µg/mL	0.663	–	0.705	–	0.674	–	–
S. pneumoniae D39V [2], first compound 0.0018 µg/mL	–	0.976	0.963	0.928	0.996	0.972	0.975
S. pneumoniae D39V [2], first compound 0.0035 µg/mL	–	0.987	0.979	0.92	0.975	0.939	0.973
S. pneumoniae D39V [2], first compound 0.007 µg/mL	–	0.95	0.961	0.89	0.99	0.933	0.953

Settings	Bliss interaction score
B. subtilis 168 [8]	0.0904
S. aureus DSM 20231 [7]	-0.0403
S. aureus Newman [5]	0.0437
S. pneumoniae D39V [6]	0.0575

— the supplement of paper PMC10627819
